Measurements: patent US9125879B2, “Composition containing a quinoa extract for dermatological use” (LABORATOIRES EXPANSCIENCE, priority 2006, dated 2015)

Legend:
Assay type in all cases: cell-based
keratinocytes = experiment: Proliferation of keratinocytes by the MTT method
Description: c. Study of the Proliferation of Keratinocytes by the MTT Method
On D0, the keratinocytes are sown in a KGM2 medium day1, the cells are treated with trans-retinoic acid (ATRA) at 1 μM or quinoa peptides with 0.05% and 0.1% DM for 24 and 48 hours. At the end of the treatment, cell viability is quantified by an MTT test: after 3 hours of contact with MTT, the formed formazan crystals are solubilized by DMSO and the optical density, proportional to the amount of metabolically active cells therefore live cells, is read at 570 nm against the blank (wells without any cells).

β-3 chain of laminin 5 = experiment: Genic expression of the β-3 chain of laminin 5 in keratinocytes (RT-PCR); details: 5 ng/ml, 48 hours
Description: (§1) a. Study of the Effect of Quinoa Peptides on the Expression of Genes Coding for Laminin 5 and PPM-9 by RT-PCR • Principle of real time quantitative PCR: cf. Example 4 • Procedure:
(§2) On day 0, the keratinocytes were sown in 24-well plates in a KGM-2 medium. On D1, the cells were treated with TGFβ1 at 5 ng/mL or quinoa peptides with 0.05 and 0.1% DM for 48 hours. At the end of the treatment of the cells, the total RNAs were extracted (RNeasy MiniKit extraction kit; Qiagen) and then quantitatively assayed in minichips by means of the Experion system (Experion RNA StdSens kit; Biorad). The total RNAs were then backtranscribed into cDNA (iScript cDNA Synthesis kit; Biorad). Finally, the neo-synthesized cDNAs relative to the gene of interest (genes coding for the 3 chains making up laminin 5: […] and MMP-9) or to the reference genes (HPRT, GAPDH, YWHEZ, beta actin=normalizers) were selectively amplified by real time PCR (iQ5, Biorad) by using specific primers of the target sequences.

KGF = experiment: Dosage of KGF secreted by fibroblasts (ELISA); details: for % A (increase) / Amount of KGF: 5 ng/ml, supernatants of fibroblasts
Description: e. Dosage of KGF Secreted by Fibroblasts
The fibroblasts were sown in a 24-well plate in RPMI at 1% SVF; after 24 hours of incubation at 37° C., with […], the cells were treated with quinoa peptides with 0.05% and 0.01% DM. IL1α (Sigma) at 100 ng/mL was used as a positive control. After 24 and 48 hours of treatment, the amount of KGF salted out by the fibroblasts was assayed with an ELISA kit (R&D Systems), according to the procedure recommended by the supplier. In parallel, the amount of living cells per well was determined by a colorimetric neutral red test: optical density OD, proportional to the amount of living cells, is read at 570 nm. In parallel, the amount of living cells per well was determined by an MTT colorimetric test: optical density OD, proportional to the amount of living cells, is read at 570 nm.
The amount of KGF is expressed by the living cells: pg/mL/OD570 MTT.

MMP-9 [1] = experiment: Dosage of MMP-9 protein secreted by keratinocytes (ELISA); details: 5 ng/ml, supernatants of keratinocytes
Description: d. Dosage of MMP-9 Secreted by Keratinocytes.
The keratinocytes were sown in 24-well plates; after 24 hours in incubation at 37° C., with 5% CO2, the cells were treated with quinoa peptides with 0.05% and 0.01% DM. TGFβ tested at 5 ng/mL was used as a positive control. After 48 and 72 hours of treatment, the amount of MMP-9 secreted by the cells was assayed in the culture supernatant by means of an ELISA kit (R&D Systems), according to the procedure recommended by the supplier. In parallel, the amount of living cells per well was determined by a colorimetric neutral red test: optical density OD, proportional to the amount of living cells, is read at 570 nm.
The amount of MMP-9 is expressed in living cells: (ng/mL)/OD570 (optical density at 570 nm) MTT.

α-3 chain of laminin 5 = experiment: Genic expression of the α-3 chain of laminin 5 in keratinocytes (RT-PCR); details: 5 ng/ml, 48 hours
Description: as §1, §2

collagen III = experiment: Genic expression of collagen III in fibroblasts (real time quantitative PCR); details: 5 ng/mL, 48 hours
Description: (§3) b. Study of the Effect of Quinoa Peptides on the Expression of Genes Coding for Collagen I and Collagen III and Elastin by RT-PCR
(§4) b.1. Principle of Real Time Quantitative PCR:
(§5) Real time quantitative PCR or QRT-PCR (Quantitative Real Time Polymerase Chain Reaction) is a molecular biology method, which allows specific and quantitative measurement of the expression of genes of interest by amplification. Quantification is based on tracking the amplification of genes in real time by using as a reporter system, SYBR Green technology: a molecule with fluorescent properties which is inserted inside the double strand DNA. PCR takes place in a succession of temperature cycles according to 3 steps: • Denaturation: separation of 2 DNA strands. • Hybridization: recognition of a DNA sequence corresponding to a target gene by means of specific primers. • Extension: of the sequence of interest by a action of a polymerase.
(§6) DNA amounts are compared in the exponential part, moment during which the increase in the DNA amount is proportional to the initial matrix amount.
(§7) On D0, the fibroblasts were sown on 6-well plates in RPMI medium added with 10% SVF. On D1, the fibroblasts were treated with TGF β1 at 5 ng/mL or the quinoa oil concentrate with 0.005% and 0.01% DM in RPMI medium with 1% SVF for 48 hours. At the end of the treatment of the cells, the total […] were extracted (extraction kit RNeasy kit MiniKit; Qiagen) and then assayed quantitatively in minichips by means of an Experion system (Experion RNA StdSens kit; Biorad). Total RNAs are then back-transcribed into cDNA (iScript cDNA Synthesis kit; Biorad). Finally the neo-synthesized cDNAs relative to the genes of interest (collagen I, collagen III, elastin) or to reference genes (HPRT, GAPDH, YWHAZ, beta actin=normalizers) were selectively amplified with real time PCR (iQ5, Biorad) by using specific primers of the target sequences.
(§8) The expression of the reference genes is analyzed in the same samples as those for which expression of the genes of interest is evaluated in order to normalize the results and to make sure that they are actually the results of the effect of the treatment by quinoa oil concentrate.
(§9) b.3. Analysis of the Results:
(§10) The variation in the number of copies of the genes of interest during the treatment is then calculated according to the following formula: DDCt=control DCt−treatment DCt.
(§11) Finally, the relative amount or the expression level of the genes of interest, normalized by the expression level of the reference genes in the untreated and treated samples is obtained by the formula: QR=2DDCt

MMP-9 [2] = experiment: Genic expression of MMP-9 in keratinocytes (RT-PCR); details: 5 ng/ml, 48 hours
Description: as §1, §2

collagen I = experiment: Genic expression of collagen I in fibroblasts (real time quantitative PCR); details: 5 ng/mL, 48 hours
Description: as §3, §4, §5, §6, §7, §8, §9, §10, §11

γ-2 chain of laminin 5 = experiment: Genic expression of the γ-2 chain of laminin 5 in keratinocytes (RT-PCR); details: 5 ng/ml, 48 hours
Description: as §1, §2

elastin = experiment: Genic expression of elastin in fibroblasts (real time quantitative PCR); details: 5 ng/mL, 48 hours
Description: as §3, §4, §5, §6, §7, §8, §9, §10, §11

In the case of CC1=C(/C=C/C(C)=C/C=C/C(C)=C/C(=O)O)C(C)(C)CCC1 [ATRA, trans-retinoic acid], the “Mean OD570 (MTT)” value (keratinocytes; 1 μM) is reported as 1.361, the “% of proliferation” value (keratinocytes; 1 μM, negative control = 100) is reported as 136% and the proliferation rate induced (keratinocytes; positive control) is reported as “+36%”.

“TGFβ: growth factor used as a positive control at 5 ng/mL” was tested, and the “% of induction” value (β-3 chain of laminin 5) was 420%, the “Mean dCt” value (β-3 chain of laminin 5) was −0.944 and the QR (β-3 chain of laminin 5) was 5.20. The ddCt (β-3 chain of laminin 5) was 2.38, the QR (β-3 chain of laminin 5; listed as TGF-β1) was roughly 5 and the “% A (increase)” value (KGF; treatment 24 h) was 431%. The “Amount of KGF” value (KGF; treatment 24 h) was 147.886 pg/mL/OD neutral red, the “% A (increase)” value (KGF; treatment 48 h) was 336% and the “Amount of KGF” value (KGF; treatment 48 h) was 352.387 pg/mL/OD neutral red. The “% A (increase)” value (MMP-9 [1]; treatment 48 h) was 372%, the “Amount of MMP-9” value (MMP-9 [1]; treatment 48 h) was 11.604 ng/mL/OD neutral red and the “% A (increase)” value (MMP-9 [1]; treatment 72 h) was 568%. For the same molecule, the “Amount of MMP-9” value (MMP-9 [1]; treatment 72 h) was 14.746 ng/mL/OD neutral red, the “% of induction” value (α-3 chain of laminin 5) was 1193% and the “Mean dCt” value (α-3 chain of laminin 5) was −0.944. It also gave a QR (α-3 chain of laminin 5) of 12.93, a ddCt (α-3 chain of laminin 5) of 3.69 and a QR (α-3 chain of laminin 5; listed as TGF-β1) of roughly 12. The “% of induction” value (collagen III) was 427%, the “Mean dCt” value (collagen III) was 2.51 and the QR (collagen III) was 5.27. For the same molecule, the ddCt (collagen III) was 2.4, the “% of induction” value (MMP-9 [2]) was 807% and the “Mean dCt” value (MMP-9 [2]) was 3.07. The QR (MMP-9 [2]) was 8, the ddCt (MMP-9 [2]) was 3.01 and the “% of induction” value (collagen I) was 87%. The “Mean dCt” value (collagen I) was −3.2, the QR (collagen I) was 1.87 and the ddCt (collagen I) was 0.9. The “% of induction” value (γ-2 chain of laminin 5) was 1676%, the “Mean dCt” value (γ-2 chain of laminin 5) was −1.925 and the QR (γ-2 chain of laminin 5) was 17.76. For the same molecule, the ddCt (γ-2 chain of laminin 5) was 4.15, the QR (γ-2 chain of laminin 5; listed as TGF-β1) was roughly 17 and the “% of induction” value (elastin) was 435%. For the same molecule, the QR (elastin) was 5.35, the dCt (elastin) was 2.16 and the ddCt (elastin) was 2.4.

B1: IL1α: IL1α (Sigma) at 100 ng/mL used as a positive control (protein, UniProt P01583 113-271, looked up)
Interleukin-1 alpha: SAPFSFLSNVKYNFMRIIKYEFILNDALNQSIIRANDQYLTAAALHNLDEAVKFDMGAYKSSKDDAKITVILRISKTQLYVTAQDEDQPVLLKEMPEIPKTITGSETNLLFFWETHGTKNYFTSVAHPNLFIATKQDYWVCLAGGPPSITDFQILENQA
B1 was tested, and the “synthesis of KGF by fibroblasts” value (KGF; positive control, 100 ng/mL) was “increased”.
